The results in this text go back to patent publication US6531459B1, “Vitamin D derivatives with phosphorus atoms in the side chains” (Schering Aktiengesellschaft, priority 1997, dated 2003).

Molecules are shown by their SMILES.

For the experiment, the target named is T1, vitamin D receptor (Sus scrofa, UniProt A3RGC1).
T1 construct: Receptor-containing protein extract is incubated in a test tube with ^3H-calcitriol; from tissue; host or cells: intestines of juvenile pigs (protein extract)
T1 sequence (A3RGC1 1-427): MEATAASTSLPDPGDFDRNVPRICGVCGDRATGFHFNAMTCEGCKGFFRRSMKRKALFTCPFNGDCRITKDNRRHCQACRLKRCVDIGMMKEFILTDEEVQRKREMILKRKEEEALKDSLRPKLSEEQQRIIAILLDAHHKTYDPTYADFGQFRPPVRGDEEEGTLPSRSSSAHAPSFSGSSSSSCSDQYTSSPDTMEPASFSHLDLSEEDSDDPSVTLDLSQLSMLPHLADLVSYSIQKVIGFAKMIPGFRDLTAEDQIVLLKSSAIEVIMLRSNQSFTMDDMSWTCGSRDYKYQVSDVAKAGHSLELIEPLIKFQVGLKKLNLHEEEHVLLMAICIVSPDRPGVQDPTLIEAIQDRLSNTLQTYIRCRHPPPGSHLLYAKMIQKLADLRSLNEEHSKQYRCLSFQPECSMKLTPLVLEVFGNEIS
Put plainly: calcitriol-receptor test (competition with 3H-calcitriol). It is filed as binding. The settings on record: concentration of test substance / concentration of calcitriol at 50% competition; pig intestine protein extract, 3H-calcitriol 5×10^−10 mol/l. How it is done:
It is carried out using a protein extract from the intestines of juvenile pigs. […] Then, the samples are centrifuged at 10,000 g for 5 minutes at 4° C. The supernatant is decanted and measured in a β-counter after 1 hour of equilibration in Picofluor 15™.
It is defined as a quotient of the concentrations of the respective test substance and the reference substance, which are necessary for 50% competition:
KF=Concentration of test substance at 50% competition/Concentration of reference substance at 50% competition
With `C=C1/C(=C\C=C2/CCC[C@]3(C)[C@@H]([C@H](C)/C=C/C(=O)CP(=O)(OC)OC)CC[C@@H]23)C[C@@H](O)C[C@@H]1O` [Compound 5, (5Z,7E,22E)-(1S,3R)-(1,3-Dihydroxy-24-oxo-24a-homo-9,10-secochola-5,7,10(19),22-tetraen-24a-yl)phosphonic acid dimethyl ester], the “KF (competition factor)” value is 10. The same measure for `C=C1/C(=C\C=C2/CCC[C@]3(C)[C@@H]([C@H](C)/C=C/C(=O)CP(=O)(OCC)OCC)CC[C@@H]23)C[C@@H](O)C[C@@H]1O` [Compound 9, (5Z,7E,22E)-(1S,3R)-(1,3-Dihydroxy-24-oxo-24a-homo-9,10-secochola-5,7,10(19),22-tetraen-24a-yl)phosphonic acid diethyl ester]: 10; for `C=C1/C(=C\C=C2/CCC[C@]3(C)[C@@H]([C@H](C)/C=C/C(=O)CP(=O)(OC(C)C)OC(C)C)CC[C@@H]23)C[C@@H](O)C[C@@H]1O` [Compound 13, (5Z,7E,22E)-(1S,3R)-(1,3-Dihydroxy-24-oxo-24a-homo-9,10-secochola-5,7,10(19),22-tetraen-24a-yl)phosphonic acid bis(1-methylethyl)ester]: 6. The same measure for `C=C1/C(=C\C=C2/CCC[C@]3(C)[C@@H]([C@H](C)/C=C/C(CP(=O)(OCC)OCC)P(=O)(OCC)OCC)CC[C@@H]23)C[C@@H](O)C[C@@H]1O` (stereo partly drawn) [Compound 29, (5Z,7E,22E)-(1S,3R,24ξ)-(1,3-Dihydroxy-24a-homo-9,10-secochola-5,7,10(19),22-tetraene-24,24a-diyl)bis[phosphonic acid diethyl ester]]: 10.

On to `C=C1C(=CC=C2CCCC3(C)C2CCC3C(C)C=CC(=O)C(C)(C)P(=O)(OCC)OCC)CC(O)CC1O` [Compound 53, (5Z,7E,22E)-(1S,3R)-(1,3-Dihydroxy-24-oxo-9,10-secocholesta-5,7,10(19),22-tetraen-25-yl)phosphonic acid diethyl ester], for which the “KF (competition factor)” value turned out to be 12. The result for `C=C1/C(=C\C=C2/CCC[C@]3(C)[C@@H]([C@H](C)/C=C/C(=O)C(CC)(CC)P(=O)(OCC)OCC)CC[C@@H]23)C[C@@H](O)C[C@@H]1O` [Compound 57, (5Z,7E,22E)-(1S,3R)-(1,3-Dihydroxy-26,27-dimethyl-24-oxo-9,10-secocholesta-5,7,10(19),22-tetraen-25-yl)phosphonic acid diethyl ester] reads 16.

With `C=C1C(=CC=C2CCCC3(C)C2CCC3C(C)C=CC(O)P(=O)(OC(C)C)OC(C)C)CC(O)CC1O` [Compound 65b, (5Z,7E,22E)-(1S,3R,24R)-(1,3,24-trihydroxy-9,10-secochola-5,7,10(19),22-tetraen-24-yl)phosphonic acid-bis(1-methylethyl)ester], the “KF (competition factor)” value stood at 10.
